Measured values published in patent publication US10815257B2, “Polymorph of sodium neridronate and preparation process thereof” (ABIOGEN PHARMA S.P.A., priority 2018, dated 2020).

Columns and labels:
Assay type in all cases: physicochemical
[1] = Hygroscopicity study by Dynamic Vapor Sorption (DVS); conditions: 25° C.; for mass variation (humidity absorption, DVS): 90% relative humidity (RH); for behavior in DVS hygroscopicity study: RH 0 to 90%
Protocol: The Hygroscopicity study was carried out on samples of polymorphic crystalline forms F, B and E of sodium neridronate by measuring the humidity absorption kinetics, in a range of relative humidity (RH %) comprised between 0 and 90%, at the temperature of 25° C.

[2] = Stability study at 40° C. and 75% RH monitored by XRD; conditions: for stability of crystalline form over time (XRD): eight weeks observation
Protocol: The stability study was carried out on samples of crystalline polymorphic forms B, E, and the hemihydrate form F of sodium neridronate, stored in an environment characterized by 75% relative humidity (RH) and a temperature of 40° C.
The observation of the sample stability lasted for a period of eight weeks, during which once a week, […], an aliquot was taken from each sample and subjected to XRD analysis to observe any possible crystalline changes of the various samples over time.

[3] = Thermodynamic solubility test; conditions: buffer solution pH 7.4, 37° C., stirring about 500 rpm
Protocol: For this purpose, a dissolution test was carried out in a buffer solution at pH 7.4. The thermodynamic solubility evaluation was performed leaving the sample in the buffer solution, under magnetic stirring at about 500 rpm, for a period of 24 hours, at a temperature of 37° C.

Structure (SMILES)	mass variation (humidity absorption, DVS) [1]	behavior in DVS hygroscopicity study [1]	stability of crystalline form over time (XRD) [2]	solubility thermodynamic at 24 h ([3]; buffer solution, 37 °C, pH 7.4, aqueous buffer, thermodynamic from solid) [mg/mL]	onset of conversion into crystalline hemihydrate form F (XRD) [2]	extent of conversion into form F after seven weeks (XRD) ([2]; seven weeks)	extent of conversion into form F at the end of the observation period (XRD) ([2]; eight weeks)	thermodynamic solubility ([3]; 24 hours) [mg/mL]
NCCCCCC(O)(P(=O)([O-])O)P(=O)(O)O.[Na+] [form F, sodium neridronate]	without any appreciable mass variation	hydrophobic behavior	stable even after eight weeks conditioning	93.7				
NCCCCCC(O)(P(=O)([O-])O)P(=O)(O)O.[Na+] [form E, sodium neridronate]	about 1%	hydrophilic behavior	not stable over time		begin to convert into the crystalline hemihydrate form F already after a week	completely converted into the crystalline hemihydrate form F		
NCCCCCC(O)(P(=O)([O-])O)P(=O)(O)O.[Na+] [form B, sodium neridronate]	about 5%	hydrophilic behavior	not stable over time		begin to convert into the crystalline hemihydrate form F already after a week		only partially converted	92.97
